Laboratory results taken from paper PMC10112938 (Hypertension (Dallas, Tex. : 1979), 2023).

Columns and labels:
adenosine A2B receptor [1] = target: T1, adenosine A2B receptor (Homo sapiens, UniProt P29275); assay: HTRF […]', […]'-cAMP assay in HEK293 cells expressing human A2B receptors; assay type: cell-based
T1 sequence (P29275 1-332): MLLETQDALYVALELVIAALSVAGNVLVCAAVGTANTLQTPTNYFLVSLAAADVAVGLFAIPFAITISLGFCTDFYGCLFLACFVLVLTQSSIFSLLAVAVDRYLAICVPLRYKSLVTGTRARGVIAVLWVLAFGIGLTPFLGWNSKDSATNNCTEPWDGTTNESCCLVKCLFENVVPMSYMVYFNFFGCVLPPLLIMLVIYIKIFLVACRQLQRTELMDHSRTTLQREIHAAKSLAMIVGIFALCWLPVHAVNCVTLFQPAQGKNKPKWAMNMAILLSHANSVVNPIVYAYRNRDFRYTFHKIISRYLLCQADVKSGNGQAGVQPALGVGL

adenosine A2B receptor [2] = target: T1, adenosine A2B receptor; assay: as above; assay type: cell-based; remark: listed apart in the source

Row | HTRF 3',5'-cAMP assay in HEK293 cells expressing human A2B receptors; antagonism (adenosine A2B receptor [1]) | HTRF 3',5'-cAMP assay in HEK293 cells expressing human A2B receptors; response a (adenosine A2B receptor [2]) | SMILES
1 | 1 µmol/L | – | CCCn1c(=O)c2[nH]c(-c3ccc(OCC(=O)Nc4ccc(C#N)cc4)cc3)nc2n(CCC)c1=O [MRS 1754]
2 | – | 3 to 10 µmol/L | O=c1[nH]cnc2c1ncn2[C@@H]1O[C@H](CO)[C@@H](O)[C@H]1O [inosine]
